# In US20230123334A1, “AMINO LIPID COMPOUND, PREPARATION METHOD THEREFOR, AND APPLICATION THEREOF” (SHENZHEN SHENXIN BIOTECHNOLOGY CO., LTD., priority 2020, published 2023):
# Legend:
# HEK293 cells [1] = test: Preliminary screening as mRNA vectors, EGFP mRNA transfection of HEK293 cells; type: cell-based; settings: HEK293 cells, 96-well plates, EGFP mRNA 50 ng per well; percentage of GFP fluorescent cells relative to total number of cells (Hoechst)
# In short: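 HEK293 cells in DMEM plus 10% FBS transfected in 96-well format with 50 ng EGFP mRNA per well; Lipofectamine2000 served as positive control. Read-out is the percentage of GFP-fluorescent cells among total cells, counted by Hoechst nuclear stain.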
# HEK293 cells [2] = test: Preliminary screening as DNA vectors, GFP transfection of HEK293 cells; type: cell-based; settings: HEK293 cells; lipid/DOPE liposome with 75 ng plasmid DNA (psin-EGFP-IRES-Puro); number of cells expressing GFP divided by total number of nuclei (Hoechst)
# In short: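 HEK293 cells in DMEM/10% FBS transfected with 75 ng EGFP plasmid per well complexed with amino lipid/DOPE liposomes in pH 5.6 sodium acetate. Hoechst nuclear stain added 20-24 h post-transfection, then cells cultured another 20-24 h. Confocal imaging gives GFP-positive cells as % of total nuclei.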
SMILES,Absolute mRNA transfection efficiency in HEK293 cells (HEK293 cells [1]) [%],Absolute DNA transfection efficiency in HEK293 cells (HEK293 cells [2]) [%]
CCCCCCCCCCCCCCCCNc1nc(NCCCCCCCCCCCCCCC)nc(NCCN2CCCCC2)n1 [Compound N15N16D4],1.6,1.9
CCCCCCCCCCCCCCCCNc1nc(NCCCCCCCCCCCCCCC)nc(NCCN2CCN(C)CC2)n1 [Compound N15N16D5],0.0,0.7
CCCCCCCCCCCCCCCCNc1nc(NCCCCCCCCCCCCCCC)nc(NCCCN(C)C)n1 [Compound N15N16D6],1.3,0.8
CCCCCCCCCCCCCCCCNc1nc(NCCCCCCCCCCCCCCC)nc(NCCN(CC)CC)n1 [Compound N15N16D7],0.0,0.9
CCCCCCCCCCCCCCCCNc1nc(NCCCCCCCCCCCCCCC)nc(NCCCN2CCOCC2)n1 [Compound N15N16D8],0.0,0.0
CCCCCCCCCCCCCCCCNc1nc(NCCCCCCCCCCCCCCC)nc(NCCCN2CCN(C)CC2)n1 [Compound N15N16D9],1.7,2.1
CCCCCCCCCCCCCCCCNc1nc(NCCCCCCCCCCCCCCC)nc(NCC2CCN(C)CC2)n1 [Compound N15N16D10],0.0,1.5
CCCCCCCCCCCCCCCCCCNc1nc(NCCCCCCCCCCCCCCC)nc(NCCN(C)C)n1 [Compound N15N18D1],0.0,0.0
CCCCCCCCCCCCCCCCCCNc1nc(NCCCCCCCCCCCCCCC)nc(NCCN2CCOCC2)n1 [Compound N15N18D2],0.0,0.0
CCCCCCCCCCCCCCCCCCNc1nc(NCCCCCCCCCCCCCCC)nc(NCCN2CCCC2)n1 [Compound N15N18D3],8.6,3.0
CCCCCCCCCCCCCCCCCCNc1nc(NCCCCCCCCCCCCCCC)nc(NCCN2CCCCC2)n1 [Compound N15N18D4],1.9,1.6
CCCCCCCCCCCCCCCCCCNc1nc(NCCCCCCCCCCCCCCC)nc(NCCN2CCN(C)CC2)n1 [Compound N15N18D5],0.0,0.0
CCCCCCCCCCCCCCCCCCNc1nc(NCCCCCCCCCCCCCCC)nc(NCCCN(C)C)n1 [Compound N15N18D6],8.6,0.6
CCCCCCCCCCCCCCCCCCNc1nc(NCCCCCCCCCCCCCCC)nc(NCCN(CC)CC)n1 [Compound N15N18D7],8.3,3.2
CCCCCCCCCCCCCCCCCCNc1nc(NCCCCCCCCCCCCCCC)nc(NCCCN2CCOCC2)n1 [Compound N15N18D8],0.0,0.9
CCCCCCCCCCCCCCCCCCNc1nc(NCCCCCCCCCCCCCCC)nc(NCCCN2CCN(C)CC2)n1 [Compound N15N18D9],0.0,0.7
CCCCCCCCCCCCCCCCCCNc1nc(NCCCCCCCCCCCCCCC)nc(NCC2CCN(C)CC2)n1 [Compound N15N18D10],7.4,3.5
CCCCCCCCCCCCCCCCNc1nc(NCCCCCCCCCCCCCCCC)nc(NCCN(C)C)n1 [Compound N16N16D1],9.5,1.3
CCCCCCCCCCCCCCCCNc1nc(NCCCCCCCCCCCCCCCC)nc(NCCN2CCOCC2)n1 [Compound N16N16D2],0.0,0.2
CCCCCCCCCCCCCCCCNc1nc(NCCCCCCCCCCCCCCCC)nc(NCCN2CCCC2)n1 [Compound N16N16D3],2.8,1.4
CCCCCCCCCCCCCCCCNc1nc(NCCCCCCCCCCCCCCCC)nc(NCCN2CCCCC2)n1 [Compound N16N16D4],0.0,0.9
CCCCCCCCCCCCCCCCNc1nc(NCCCCCCCCCCCCCCCC)nc(NCCN2CCN(C)CC2)n1 [Compound N16N16D5],0.0,0.0
CCCCCCCCCCCCCCCCNc1nc(NCCCCCCCCCCCCCCCC)nc(NCCCN(C)C)n1 [Compound N16N16D6],0.0,0.9

SMILES,Absolute mRNA transfection efficiency in HEK293 cells (HEK293 cells [1]) [%],Absolute DNA transfection efficiency in HEK293 cells (HEK293 cells [2]) [%]
CCCCCCCCCCCCCCCCNc1nc(NCCCCCCCCCCCCCCCC)nc(NCCN(CC)CC)n1 [Compound N16N16D7],7.9,0.0
CCCCCCCCCCCCCCCCNc1nc(NCCCCCCCCCCCCCCCC)nc(NCCCN2CCOCC2)n1 [Compound N16N16D8],1.6,0.5
CCCCCCCCCCCCCCCCNc1nc(NCCCCCCCCCCCCCCCC)nc(NCCCN2CCN(C)CC2)n1 [Compound N16N16D9],0.0,1.9
CCCCCCCCCCCCCCCCNc1nc(NCCCCCCCCCCCCCCCC)nc(NCC2CCN(C)CC2)n1 [Compound N16N16D10],0.0,0.0
CCCCCCCCCCCCCCCCCCNc1nc(NCCCCCCCCCCCCCCCC)nc(NCCN(C)C)n1 [Compound N16N18D1],0.0,1.2
CCCCCCCCCCCCCCCCCCNc1nc(NCCCCCCCCCCCCCCCC)nc(NCCN2CCOCC2)n1 [Compound N16N18D2],0.0,1.2
CCCCCCCCCCCCCCCCCCNc1nc(NCCCCCCCCCCCCCCCC)nc(NCCN2CCCC2)n1 [Compound N16N18D3],20.8,0.4
CCCCCCCCCCCCCCCCCCNc1nc(NCCCCCCCCCCCCCCCC)nc(NCCN2CCCCC2)n1 [Compound N16N18D4],1.8,0.6
CCCCCCCCCCCCCCCCCCNc1nc(NCCCCCCCCCCCCCCCC)nc(NCCN2CCN(C)CC2)n1 [Compound N16N18D5],0.0,1.1
CCCCCCCCCCCCCCCCCCNc1nc(NCCCCCCCCCCCCCCCC)nc(NCCCN(C)C)n1 [Compound N16N18D6],4.4,0.0
CCCCCCCCCCCCCCCCCCNc1nc(NCCCCCCCCCCCCCCCC)nc(NCCN(CC)CC)n1 [Compound N16N18D7],0.0,0.0
CCCCCCCCCCCCCCCCCCNc1nc(NCCCCCCCCCCCCCCCC)nc(NCCCN2CCOCC2)n1 [Compound N16N18D8],1.0,0.0
CCCCCCCCCCCCCCCCCCNc1nc(NCCCCCCCCCCCCCCCC)nc(NCCCN2CCN(C)CC2)n1 [Compound N16N18D9],0.0,0.0
CCCCCCCCCCCCCCCCCCNc1nc(NCCCCCCCCCCCCCCCC)nc(NCC2CCN(C)CC2)n1 [Compound N16N18D10],1.8,3.0
CCCCCCCCCCCCCCCCCCNc1nc(NCCCCCCCCCCCCCCCCCC)nc(NCCN(C)C)n1 [Compound N18N18D1],2.2,1.9
CCCCCCCCCCCCCCCCCCNc1nc(NCCCCCCCCCCCCCCCCCC)nc(NCCN2CCOCC2)n1 [Compound N18N18D2],0.0,0.0
CCCCCCCCCCCCCCCCCCNc1nc(NCCCCCCCCCCCCCCCCCC)nc(NCCN2CCCC2)n1 [Compound N18N18D3],40.0,2.0
CCCCCCCCCCCCCCCCCCNc1nc(NCCCCCCCCCCCCCCCCCC)nc(NCCN2CCCCC2)n1 [Compound N18N18D4],0.0,0.9
CCCCCCCCCCCCCCCCCCNc1nc(NCCCCCCCCCCCCCCCCCC)nc(NCCN2CCN(C)CC2)n1 [Compound N18N18D5],0.0,1.1
CCCCCCCCCCCCCCCCCCNc1nc(NCCCCCCCCCCCCCCCCCC)nc(NCCCN(C)C)n1 [Compound N18N18D6],4.4,0.3
CCCCCCCCCCCCCCCCCCNc1nc(NCCCCCCCCCCCCCCCCCC)nc(NCCN(CC)CC)n1 [Compound N18N18D7],0.0,0.3
CCCCCCCCCCCCCCCCCCNc1nc(NCCCCCCCCCCCCCCCCCC)nc(NCCCN2CCOCC2)n1 [Compound N18N18D8],0.0,0.1
